In patent US11008360B2, “Indoleacetic acid derivative and preparation method and pharmaceutical use thereof” (Institute of Chinese Materia Medica, China Academy of …, priority 2017, dated 2021):
Marks after values point to notes of the source that are not given here.

Columns and labels:
[1] = tested on: aqueous ammonia-induced cough in mice; assay: Aqueous ammonia-induced cough test; assay type: in vivo, Kunming mice; conditions: x ± s, n=16
Description: Test animals: Kunming mice (body weight 18-22 g, half male and half female), purchased from Beijing Vital River Laboratory Animal Technology Co., Ltd., with Certificate No.: SCXK-(Beijing)2012-001.
(§1) Test reagent: Codeine phosphate (Europharm Laboratoires Co., Ltd.).
Device: YC-Y800 Medical ultrasonic nebulizer (Beijing Yadu Technology Co., Ltd., with Beijing Pharmaceutical Supervision Certificate No.: Beijing 99 No. 223145); UV-2450 UV-visible spectrophotometer (Shimadzu Co., Japan); UX420S Animal balance (Shimadzu Co., Japan); and milli electronic balance (Sartorius Co., Germany).
The mice were adaptively fed for 3 days followed by screening. The ultrasonic nebulizer was preheated, and added with 40 ml of fresh aqueous ammonia solution (12.5%). The mice were placed in 1000 ml beaker. The beaker's mouth was sealed with a plastic wrap with two holes opened (one for inserting the ultrasonic atomizer outlet tube, and the other for ventilation). Ammonia was continuously introduced by the ultrasonic atomizer at its minimal power for 60 seconds, followed by stopping the ultrasonic atomizer immediately. The plastic wrap was quickly opened to allow the ammonia to diffuse naturally. Mice which coughed for less than 10 times or more than 80 times within three minutes were excluded. The qualified mice were randomly grouped into blank control group, compound of the present invention group, and codeine phosphate-positive control group. The above groups were intragastrically administrated with the drugs according to body weight, and the blank control group was administrated with equal volume of distilled water. The administration was carried out once a day for five consecutive days. The mice were placed one by one in an inverted 5 L sealed glass bell jar for one hour after the last administration, and treated by a constant pressure ammonia spray stimulation for 15 seconds (10 mL of ammonia spray/time for one mouse, and changed each time). After the stimulation stopped, the mice were taken out to observe the latentperiod of the cough of the mice (the time from spraying starting to coughing starting) and the number of coughs within 2 minutes (cough was identified by severely contracting the abdominal muscles and opening the mouth, with a slight cough sound sometimes).
(§2) Statistical method: data analysis of the experimental data was carried out with SPSS 10.0 statistical software, and t-test was used for comparison between groups.

[2] = tested on: citric acid-induced cough in guinea pigs; assay: Citric acid-induced cough test; assay type: in vivo; conditions: x ± s
Description: Test animals: Guinea pigs (body weight 180-220 g, half male and half female), purchased from Beijing Vital River Laboratory Animal Technology Co., Ltd.
as §1
The devices are the same as in Test Example 1.
The guinea pigs were adaptively fed for 1 day followed by preliminary screening.
The guinea pigs were placed one by one in an inverted 5 L sealed glass bell jar, and treated by a constant pressure spray stimulation (17.5% citric acid solution) for one minute. The number of coughs within 5 minutes from the spray was recorded, and the guinea pigs which coughed more than 10 times were chosen as qualified test animals. The qualified guinea pigs were randomly grouped into blank control group, compound of the present invention group, and codeine phosphate-positive control group. The above groups were intragastrically administrated with the drugs according to body weight, and the blank control group was administrated with equal volume of distilled water. The intragastrical administration was carried out for five consecutive days. The guinea pigs were placed in an inverted 5 L sealed glass bell jar for one hour after the last administration, and treated by the nebulizer for 30 seconds. The latentperiod of the cough of the guinea pigs (the time from starting spraying of 17.5% citric acid to coughing starting) and the number of coughs within 5 minutes were observed.
as §2

[3] = tested on: tracheal phenol red excretion amount in mice; assay: Phlegm-reducing effect (tracheal phenol red excretion); assay type: in vivo, Kunming mice; conditions: x ± s, n=16
Description: Test animals: Kunming mice (body weight 18-22 g, half male and half female), purchased from Beijing Vital River Laboratory Animal Technology Co., Ltd. Test reagent: Ammonium chloride (Guangzhou Chemical Reagent Factory). The devices were the same as in Test Example 1. According to the method of LI Yikui's phlegm-reducing test, the mice were fed normally for 3 days, and then randomly grouped into blank control group, compound of the present invention group, and ammonium chloride-positive control group. […] The phenol red excretion amount was calculated from the phenol red standard curve, and the significance of the difference between the groups was compared. Statistical method: data analysis of the experimental data was carried out with SPSS 10.0 statistical software, and t-test was used for comparison between groups.

[4] = 20 mg·kg^-1 intragastric once a day for five days, ammonia spray 1 h after last administration
[5] = 20 mg·kg^-1 intragastric for five days, 17.5% citric acid spray 1 h after last administration
[6] = 20 mg·kg^-1 intragastric for five days, phenol red i.p. 30 min after last administration
[7] = positive control dose 15 mL·kg^-1 intragastric once a day for five days

SMILES	Latentperiod [1, 4] [s]	Number of coughs [1, 4] [times/2 min]	Latentperiod [2, 5] [s]	Tracheal phenol red excretion amount [3, 6]	Tracheal phenol red excretion amount ([3]; positive control dose 1000 mg·kg^-1 intragastric for five days) [mg/L]	Latentperiod [1, 7] [s]	Number of coughs [1, 7] [times/2 min]	Latentperiod ([2]; positive control dose 15 mL·kg^-1 intragastric for five days, n=18) [s]
O=C(O)CC[C@@H](NC(=O)Cc1cn([C@@H]2O[C@H](CO)[C@@H](O)[C@H](O)[C@H]2O)c2ccc(Cl)cc12)C(=O)O [Compound 10]	39.4 ± 4.1	19.4 ± 6.3	139 ± 41	0.962 ± 0.101 mg/L				
COc1cccc2c(CC(=O)N[C@H](CC(=O)O)C(=O)O)cn([C@@H]3O[C@H](CO)[C@@H](O)[C@H](O)[C@H]3O)c12 [Compound 8]	39.6 ± 5.5	19.2 ± 4.7	110 ± 32	1.142 ± 0.132 mg/L				
O=C(O)C[C@@H](NC(=O)Cc1cn([C@@H]2O[C@H](CO)[C@@H](O)[C@H](O)[C@H]2O)c2ccccc12)C(=O)O [Compound 1, (2-(1-((2R,3R,4S,5S,6R)-3,4,5-trihydroxy-6-(hydroxymethyl)tetrahydro-2H-pyran-2-yl)-1H-indol-3-yl)acetyl)-D-aspartic acid]	45.8 ± 8.2	19.1 ± 10.7	147 ± 89	1.125 ± 0.129 mg/L				
O=C(O)C[C@@H](NC(=O)Cc1cn([C@@H]2O[C@H](CO)[C@@H](O)[C@H](O)[C@H]2O)c2ccc(Cl)cc12)C(=O)O [Compound 5, (2-(5-chloro-1-((2R,3R,4S,5S,6R)-3,4,5-trihydroxy-6-(hydroxymethyl)tetrahydro-2H-pyran-2-yl)-1H-indol-3-yl)acetyl)-D-aspartic acid]	42.6 ± 11.2	19.6 ± 5.1	110 ± 32	0.831 ± 0.107 mg/L				
COc1ccc2c(c1)c(CC(=O)N[C@H](CC(=O)O)C(=O)O)cn2[C@@H]1O[C@H](CO)[C@@H](O)[C@H](O)[C@H]1O [Compound 4]	40.3 ± 5.5	18.5 ± 4.3	120 ± 55	1.072 ± 0.221 mg/L				
Cc1ccc2c(c1)c(CC(=O)N[C@H](CCC(=O)O)C(=O)O)cn2[C@@H]1O[C@H](CO)[C@@H](O)[C@H](O)[C@H]1O [Compound 9]	38.1 ± 4.7	23.8 ± 5.1	121 ± 47	1.089 ± 0.139**^1 mg · L^−1				
Cl.N [Ammonium chloride, reference compound]					1.068 ± 0.224			
O=C(O)C[C@@H](NC(=O)Cc1cn([C@@H]2O[C@H](CO)[C@@H](O)[C@H](O)[C@H]2O)c2ccc(Br)cc12)C(=O)O [Compound 6, (2-(5-bromo-1-((2R,3R,4S,5S,6R)-3,4,5-trihydroxy-6-(hydroxymethyl)tetrahydro-2H-pyran-2-yl)-1H-indol-3-yl)acetyl)-D-aspartic acid]	40.7 ± 5.2	21.8 ± 7.3	127 ± 52	0.888 ± 0.145 mg/L				
O=C(O)CC[C@@H](NC(=O)Cc1cn([C@@H]2O[C@H](CO)[C@@H](O)[C@H](O)[C@H]2O)c2ccccc12)C(=O)O [Compound 2, (2-(1-((2R,3R,4S,5S,6R)-3,4,5-trihydroxy-6-(hydroxymethyl)tetrahydro-2H-pyran-2-yl)-1H-indol-3-yl)acetyl)-D-glutamic acid]	48.5 ± 9.4	17.3 ± 4.6	98 ± 59	0.988 ± 0.211 mg/L				
Cc1cccc2c(CC(=O)N[C@H](CC(=O)O)C(=O)O)cn([C@@H]3O[C@H](CO)[C@@H](O)[C@H](O)[C@H]3O)c12 [Compound 7]	42.1 ± 7.2	18.6 ± 8.5	130 ± 22	0.956 ± 0.270 mg/L				
Cc1ccc2c(c1)c(CC(=O)N[C@H](CC(=O)O)C(=O)O)cn2[C@@H]1O[C@H](CO)[C@@H](O)[C@H](O)[C@H]1O [Compound 3, (2-(5-methyl-1-((2R,3R,4S,5S,6R)-3,4,5-trihydroxy-6-(hydroxymethyl)tetrahydro-2H-pyran-2-yl)-1H-indol-3-yl)acetyl)-D-aspartic acid]	38.1 ± 5.3	20.7 ± 5.2	128 ± 65	0.971 ± 0.114 mg/L				
COc1ccc2c3c1O[C@H]1[C@@H](O)C=C[C@H]4[C@@H](C2)N(C)CC[C@@]341 [Codeine phosphate, reference compound]						48.3 ± 5.9	14.2 ± 6.5	107 ± 41
